The AC50 is the midpoint of the concentration-response curve, whichever way the signal moves. A high value points to activity only at high concentration.

Experiment [1] concerns the target Beta-2 adrenergic receptor (Homo sapiens, UniProt P07550).
The next experiment concerns the target T1, Glucocorticoid receptor (Homo sapiens, UniProt P04150).
T1 sequence (P04150 whole entry): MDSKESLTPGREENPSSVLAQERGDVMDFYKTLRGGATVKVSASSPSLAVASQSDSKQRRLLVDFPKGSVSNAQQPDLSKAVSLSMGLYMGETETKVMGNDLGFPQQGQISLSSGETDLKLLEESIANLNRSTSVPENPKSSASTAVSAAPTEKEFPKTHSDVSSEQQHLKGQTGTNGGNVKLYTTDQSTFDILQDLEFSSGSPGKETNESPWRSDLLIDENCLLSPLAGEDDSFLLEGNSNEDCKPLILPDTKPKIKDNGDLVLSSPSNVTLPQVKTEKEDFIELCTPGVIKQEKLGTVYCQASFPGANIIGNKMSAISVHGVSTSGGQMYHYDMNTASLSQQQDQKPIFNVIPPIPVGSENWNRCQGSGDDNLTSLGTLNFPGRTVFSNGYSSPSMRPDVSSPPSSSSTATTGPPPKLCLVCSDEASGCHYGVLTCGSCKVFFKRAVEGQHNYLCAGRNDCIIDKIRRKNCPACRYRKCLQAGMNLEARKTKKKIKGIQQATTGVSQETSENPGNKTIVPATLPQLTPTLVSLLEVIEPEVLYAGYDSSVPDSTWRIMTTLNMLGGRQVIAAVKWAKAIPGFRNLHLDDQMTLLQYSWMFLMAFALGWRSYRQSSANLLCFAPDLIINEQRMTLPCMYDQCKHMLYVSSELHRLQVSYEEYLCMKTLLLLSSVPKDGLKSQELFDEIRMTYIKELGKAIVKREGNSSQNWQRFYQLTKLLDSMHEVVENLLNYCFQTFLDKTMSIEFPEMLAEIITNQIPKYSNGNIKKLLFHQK

Experiment [2] addresses T2, Alpha-1A adrenergic receptor (Homo sapiens, UniProt P35348).
T2 sequence (P35348 whole entry): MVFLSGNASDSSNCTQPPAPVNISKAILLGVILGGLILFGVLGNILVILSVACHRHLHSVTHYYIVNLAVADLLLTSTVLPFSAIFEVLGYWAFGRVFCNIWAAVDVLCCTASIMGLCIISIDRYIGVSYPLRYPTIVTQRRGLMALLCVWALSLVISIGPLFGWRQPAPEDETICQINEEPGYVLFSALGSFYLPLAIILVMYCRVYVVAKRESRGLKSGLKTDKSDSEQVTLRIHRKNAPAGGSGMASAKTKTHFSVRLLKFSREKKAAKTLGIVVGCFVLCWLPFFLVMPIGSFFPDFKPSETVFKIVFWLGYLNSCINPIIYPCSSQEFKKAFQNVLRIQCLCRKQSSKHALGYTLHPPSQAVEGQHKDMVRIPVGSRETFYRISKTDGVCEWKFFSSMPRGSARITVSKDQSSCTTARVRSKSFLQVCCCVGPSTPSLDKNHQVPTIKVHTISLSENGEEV

In experiment [3] the target is T3, Gastrin/cholecystokinin type B receptor (Homo sapiens, UniProt P32239).
T3 sequence (P32239 whole entry): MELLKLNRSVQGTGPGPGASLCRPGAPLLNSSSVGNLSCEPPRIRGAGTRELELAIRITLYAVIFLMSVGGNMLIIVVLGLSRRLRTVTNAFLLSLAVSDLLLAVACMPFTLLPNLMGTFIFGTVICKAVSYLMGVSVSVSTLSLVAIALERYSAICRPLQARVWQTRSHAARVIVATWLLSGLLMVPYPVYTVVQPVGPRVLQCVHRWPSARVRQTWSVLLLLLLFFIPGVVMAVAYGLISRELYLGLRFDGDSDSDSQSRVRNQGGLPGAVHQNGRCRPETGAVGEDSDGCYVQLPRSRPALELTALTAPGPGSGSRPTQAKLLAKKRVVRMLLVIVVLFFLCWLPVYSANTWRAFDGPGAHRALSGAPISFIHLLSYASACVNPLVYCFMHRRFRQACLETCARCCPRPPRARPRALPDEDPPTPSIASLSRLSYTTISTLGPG

A further experiment concerns the target Melanocortin receptor 4 (Homo sapiens, UniProt P32245).
The target of the next experiment is T4, Thromboxane A2 receptor (Homo sapiens, UniProt P21731).
T4 sequence (P21731 whole entry): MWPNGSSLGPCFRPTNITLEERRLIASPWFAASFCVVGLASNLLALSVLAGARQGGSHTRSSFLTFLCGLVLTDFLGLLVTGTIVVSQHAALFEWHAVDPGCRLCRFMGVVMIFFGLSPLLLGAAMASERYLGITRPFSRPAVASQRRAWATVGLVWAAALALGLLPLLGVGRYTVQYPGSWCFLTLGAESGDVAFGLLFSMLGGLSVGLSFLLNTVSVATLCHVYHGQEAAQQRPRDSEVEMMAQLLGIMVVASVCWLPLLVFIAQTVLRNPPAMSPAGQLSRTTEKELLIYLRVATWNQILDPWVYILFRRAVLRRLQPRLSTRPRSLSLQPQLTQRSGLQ

The next experiment deals with Mu-type opioid receptor (Homo sapiens, UniProt P35372). Briefly: biochemical. It counts as functional.
Chain of Mu-type opioid receptor (P35372 whole entry): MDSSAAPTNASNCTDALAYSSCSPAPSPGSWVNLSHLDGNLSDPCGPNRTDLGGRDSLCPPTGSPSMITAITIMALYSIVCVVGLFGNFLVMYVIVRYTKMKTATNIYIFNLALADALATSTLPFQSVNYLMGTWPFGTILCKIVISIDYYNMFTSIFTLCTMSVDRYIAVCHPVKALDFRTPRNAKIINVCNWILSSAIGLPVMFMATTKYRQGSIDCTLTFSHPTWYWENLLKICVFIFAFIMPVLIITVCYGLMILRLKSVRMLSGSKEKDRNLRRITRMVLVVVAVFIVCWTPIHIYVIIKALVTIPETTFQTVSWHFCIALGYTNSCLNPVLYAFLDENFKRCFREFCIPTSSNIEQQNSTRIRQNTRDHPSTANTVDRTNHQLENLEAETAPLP
Also: assay procedure not described here.

Chain of Melanocortin receptor 4 (P32245 whole entry): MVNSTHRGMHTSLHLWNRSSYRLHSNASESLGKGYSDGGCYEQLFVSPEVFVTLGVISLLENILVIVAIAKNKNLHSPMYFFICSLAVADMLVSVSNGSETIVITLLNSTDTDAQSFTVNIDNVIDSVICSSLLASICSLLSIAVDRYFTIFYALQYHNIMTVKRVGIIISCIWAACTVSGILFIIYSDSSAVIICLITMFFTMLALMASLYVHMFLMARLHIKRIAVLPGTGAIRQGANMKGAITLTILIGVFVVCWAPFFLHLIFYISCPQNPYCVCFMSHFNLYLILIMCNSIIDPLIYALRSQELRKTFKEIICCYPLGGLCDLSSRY
Chain of Beta-2 adrenergic receptor (P07550 whole entry): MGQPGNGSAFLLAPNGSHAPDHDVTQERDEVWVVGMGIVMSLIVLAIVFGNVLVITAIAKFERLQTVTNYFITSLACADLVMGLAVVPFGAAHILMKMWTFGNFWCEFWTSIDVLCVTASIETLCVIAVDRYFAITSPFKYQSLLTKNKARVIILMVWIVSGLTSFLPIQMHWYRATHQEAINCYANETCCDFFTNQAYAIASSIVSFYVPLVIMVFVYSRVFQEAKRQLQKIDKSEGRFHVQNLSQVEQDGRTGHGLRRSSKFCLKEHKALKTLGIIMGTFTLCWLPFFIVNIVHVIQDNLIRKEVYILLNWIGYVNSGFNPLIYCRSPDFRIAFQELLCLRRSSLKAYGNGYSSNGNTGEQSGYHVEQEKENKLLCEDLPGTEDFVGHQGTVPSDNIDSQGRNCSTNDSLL

For the molecule `N=C(N)NC(=O)c1nc(Cl)c(N)nc1N` [AMILORIDE], the AC50 in experiment [1] was > 30 µM; on Glucocorticoid receptor, > 30 µM; in experiment [2], 2.69 µM; in experiment [3] it was > 30 µM; at Melanocortin receptor 4 it was > 30 µM; at Thromboxane A2 receptor, > 30 µM. Besides, the AC50 on Mu-type opioid receptor is 4 µM.
Consider `COc1ccc(-c2cc(=S)ss2)cc1` [ANETHOLTRITHION], for which the AC50 is 13 µM in experiment [1]; > 30 µM on Glucocorticoid receptor; 5.3 µM in experiment [3]; 16 µM on Thromboxane A2 receptor; > 30 µM at Mu-type opioid receptor.
As for `CC(C)(C)NCC(O)COc1ccccc1C#N` (stereo not given) [BUNITROLOL], the AC50 on Mu-type opioid receptor is > 30 µM.
For `C[C@]12CCC(=O)C=C1C=C[C@@H]1[C@@H]2CC[C@@]2(C)[C@H]1CC[C@@]21CCC(=O)O1` [CANRENONE], the AC50 in experiment [1] is > 30 µM; at Glucocorticoid receptor, 1.3 µM; in experiment [3] it was > 30 µM; on Thromboxane A2 receptor it was > 30 µM; at Mu-type opioid receptor it was > 30 µM.
Take `CN(C)CCC(O)(c1ccccc1)c1ccccc1Cl` (stereo not given) [CHLOPHEDIANOL]: the AC50 in experiment [1] is > 10 µM; at Glucocorticoid receptor, > 10 µM; in experiment [2], 11.8 µM; on Melanocortin receptor 4 it was > 10 µM; at Thromboxane A2 receptor it was > 10 µM.
Consider `C[C@]12C=CC(=O)C=C1C(Cl)=C[C@@H]1[C@@H]2[C@@H](O)C[C@@]2(C)[C@H]1CC[C@]2(O)C(=O)CO` [CLOPREDNOL], for which the AC50 on Glucocorticoid receptor was 0.032 µM; in experiment [3], > 30 µM; at Mu-type opioid receptor, > 30 µM.
On to `COc1cccc2c1C(=O)c1c(O)c3c(c(O)c1C2=O)C[C@@](O)(C(=O)CO)C[C@@H]3O[C@H]1C[C@H](N)[C@H](O)[C@H](C)O1` [DOXORUBICIN], for which the AC50 was > 10 µM in experiment [1]; 2.59 µM on Glucocorticoid receptor; > 10 µM in experiment [2]; > 30 µM in experiment [3]; > 30 µM on Melanocortin receptor 4.
For the molecule `C[C@]12CCC(=O)C=C1[C@@H]1C[C@@H]1[C@H]1[C@@H]3[C@@H]4C[C@@H]4[C@@]4(CCC(=O)O4)[C@@]3(C)CC[C@@H]12` [DROSPIRENONE], the AC50 (in experiment [1]; in experiment [3]; on Thromboxane A2 receptor; at Mu-type opioid receptor) was > 30 µM in each case.
For `CC(C)(Oc1ccc(Cl)cc1)C(=O)OCCOC(=O)c1cccnc1` [ETOFIBRATE], the AC50 (in experiment [1]; on Glucocorticoid receptor; in experiment [3]; at Thromboxane A2 receptor; at Mu-type opioid receptor) was > 30 µM throughout.
On to `COc1ccc(C(=O)c2ccccc2)c(O)c1` [OXYBENZONE], for which the concentration at half-maximal activity (AC50) on Mu-type opioid receptor was > 30 µM.
In the case of `C[C@]12C=CC(=O)C=C1CC[C@@H]1[C@@H]2[C@@H](O)C[C@@]2(C)[C@H]1CC[C@]2(O)C(=O)CO` [PREDNISOLONE], the AC50 in experiment [1] was > 10 µM; in experiment [2] it was > 10 µM; in experiment [3], > 30 µM; on Melanocortin receptor 4, > 30 µM; at Thromboxane A2 receptor it was > 30 µM.
In the case of `CCC(=O)c1ccc2c(c1)N(CC(C)N(C)C)c1ccccc1S2` (stereo not given) [PROPIOMAZINE], the AC50 in experiment [1] was > 10 µM; on Glucocorticoid receptor it was > 30 µM; in experiment [2], 0.0294 µM; on Melanocortin receptor 4 it was > 10 µM; at Thromboxane A2 receptor, > 10 µM.
For the molecule `CN(C)[C@@H]1C(O)=C(C(=O)NCN2CCCC2)C(=O)[C@@]2(O)C(O)=C3C(=O)c4c(O)cccc4[C@@](C)(O)[C@H]3C[C@@H]12` [ROLITETRACYCLINE], the AC50 was > 10 µM in experiment [1]; 25.8 µM at Glucocorticoid receptor; > 10 µM in experiment [2]; > 10 µM at Melanocortin receptor 4; > 10 µM on Thromboxane A2 receptor.
Take `Cc1ccc(O)c([C@H](CCN(C(C)C)C(C)C)c2ccccc2)c1` [TOLTERODINE]: the AC50 in experiment [2] came to 2.74 µM.
With `CC1(C)O[C@@H]2C[C@H]3[C@@H]4CCC5=CC(=O)C=C[C@]5(C)[C@@]4(F)[C@@H](O)C[C@]3(C)[C@]2(C(=O)CO)O1` [TRIAMCINOLONE ACETONIDE], the AC50 was 0.0031 µM at Glucocorticoid receptor, > 30 µM in experiment [3], > 30 µM on Thromboxane A2 receptor and > 30 µM on Mu-type opioid receptor.
Turning to `Oc1cc(Cl)ccc1Oc1ccc(Cl)cc1Cl` [TRICLOSAN], the AC50 at Glucocorticoid receptor was > 30 µM; in experiment [3] it was > 30 µM; on Thromboxane A2 receptor, 21 µM; at Mu-type opioid receptor, > 30 µM.

The record behind these values is ChEMBL document CHEMBL5291721, “A preclinical secondary pharmacology resource illuminates target-adverse drug reaction associations of marketed drugs” (Nat Commun, 2023).
